Results reported in US20150183737A1, “COMPOSITIONS AND METHODS FOR SUBSTRATE-SELECTIVE INHIBITION OF ENDOCANNABINOID OXYGENATION” (Vanderbilt University, priority 2012, published 2015).
Entries after “also recorded” stand apart in the source; their conditions may differ. Like-named read-outs stand apart in the source and are kept apart here.

Columns and labels:
[1] = target: T1, COX-2 in RAW 264.7 macrophages (Mus musculus, UniProt Q05769); experiment: RAW cells assay: oxygenation of 2-AG and AA; type: cell-based
T1 construct: endogenous in cells; host or cells: RAW 264.7 macrophages stimulated with LPS (and GM-CSF / interferon γ where described)
T1 sequence (Q05769 18-604): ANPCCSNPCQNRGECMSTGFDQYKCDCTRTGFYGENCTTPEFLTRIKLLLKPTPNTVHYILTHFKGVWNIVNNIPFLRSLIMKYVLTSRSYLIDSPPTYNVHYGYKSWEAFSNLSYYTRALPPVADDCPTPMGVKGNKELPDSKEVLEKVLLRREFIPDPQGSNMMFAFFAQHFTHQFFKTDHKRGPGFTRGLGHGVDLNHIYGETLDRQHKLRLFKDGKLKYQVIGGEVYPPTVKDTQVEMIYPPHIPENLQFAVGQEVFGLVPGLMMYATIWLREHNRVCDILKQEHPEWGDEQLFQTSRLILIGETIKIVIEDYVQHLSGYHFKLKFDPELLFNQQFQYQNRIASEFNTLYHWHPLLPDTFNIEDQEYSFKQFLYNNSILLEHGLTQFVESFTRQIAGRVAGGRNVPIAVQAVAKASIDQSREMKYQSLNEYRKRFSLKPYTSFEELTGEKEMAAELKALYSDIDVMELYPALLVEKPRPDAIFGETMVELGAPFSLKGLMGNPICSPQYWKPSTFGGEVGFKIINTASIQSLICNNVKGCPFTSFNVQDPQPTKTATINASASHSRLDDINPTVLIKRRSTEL
Experimental: Two hours after stimulation, varying doses of inhibitor were added to the cell media and 6 hr after stimulation the media were collected and analyzed by LC-MS-MS for prostaglandin levels.
The cells were then stimulated overnight with 20 ng/ml of granulocyte-macrophage colony-stimulating factor. The media was replaced in the morning with DMEM with GLUTAMAX® and the cells were stimulated with 100 ng/ml lipopolysaccharide and 20 units/ml interferon γ. Two hours after stimulation varying doses of inhibitor were added to the cell media and 6 hours after stimulation the media was collected and extracted in acidified ethyl acetate spiked with deuterated internal standards. The organic layer was dried down under a stream of nitrogen gas and reconstituted in 1:1 water:methanol and analyzed by LC-MS/MS for prostaglandin levels using the same instrumentation, column, solvents and conditions as described for the in vitro assay above.

purified murine COX-2 = target: T2, purified murine COX-2 (Mus musculus, UniProt Q05769); experiment: Inhibition of mCOX-2 dependent oxygenation of 2-AG and AA by profens in vitro; type: biochemical; design: made in house; host or cells: insect cells; conditions: achiral profens; for inhibition at 10 µM: at 10 μM inhibitor
T2 sequence (Q05769 18-604): T1 sequence (Q05769 18-604)
Experimental: Desired concentrations of inhibitor in DMSO or blank (DMSO) were incubated with mCOX-2 (40 nM) for 3 minutes in 100 mM Tris-HCl with 0.5 mM phenol, pH 8.0 at 37° C. After pre-incubation of enzyme and inhibitor, 5 μM of AA or 2-AG was added at 37° C. Thirty seconds later, the reaction was quenched with 200 μL of ice-cold ethyl acetate containing 0.5% acetic acid (v/v) and 1 μM PGE2-d4 and PGE2-G-d5. The solution was then vortexed and the aqueous layer frozen. The organic layer was removed and evaporated to near-dryness under nitrogen. The samples were reconstituted in 1:1 MeOH:H2O and chromatographed using a LUNA® C18(2) column (50 2 mm, 3 μm; Phenomenex, Torrance, Calif., United States of America). […] Analyte peak areas were normalized to the appropriate internal standard to determine the amount of product formation, and inhibition was determined by normalization to a DMSO control.

ICR mice [2] = experiment: Light-dark box; type: in vivo; conditions: 10 mg/kg
ICR mice [3] = experiment: Novel open field test; type: in vivo; conditions: 10 mg/kg
Experimental: Animals were tested for open-field activity in a novel environment one hour after i.p. injection of compound as described in Sumislawski et al., 2011. Briefly, one-hour sessions were performed using automated experimental chambers (27.9 27.9 cm; MEDOFA-510; MED Associates, Ga., Vermont, United States of America) under constant illumination within a sound-attenuated room. Analysis of open field activity was performed using Activity Monitor v5.10 (MED Associates).

ICR mice [4] = experiment: Elevated plus-maze (EPM); type: in vivo; conditions: 10 mg/kg
[5] = system: brain eCB, AA and PG levels; experiment: Brain eCB, NAE, MAG, AA and PG levels after i.p. injection; type: in vivo, mice; conditions: 10 mg/kg i.p., 2 hours
Experimental: 5-7 week old male ICR mice were used for all experiments with the exception of knockout animals (Harlan, Indianapolis, Ind., United States of America). Mice were housed 5 per […]. All behavioral tests were conducted during the light cycle between 0900 and 1700. KO and WT littermate controls for FAAH^(−/−) and COX-2^(−/−) mice were derived from heterozygote breeding pairs, bred and genotyped as described in Uddin et al., 2011. CB1^(−/−) mice were bred from homozygote breeding pairs and genotyped as described in Pan et al., 2008. Mice were group-housed on a 12:12 light-dark cycle (lights on at 06:00), with food and water available ad libitum. All animal studies were approved by the Vanderbilt Institutional Animal Care and Use Committee and conducted in accordance with the Guide for the Care and Use of Laboratory Animals of the United States National Institutes of Health.
(§1) Mice were sacrificed by cervical dislocation and decapitation. The brain, lungs, liver, stomach, small intestines, and kidneys were then rapidly removed and frozen on a metal block in dry ice. The tissue was then placed in a tube and stored at −80° C. until extraction, usually one day after harvesting. For PG and eCB analysis, lipid extraction from tissue was carried out as described in Patel et al., 2009.
(§2) Analytes were quantified using LC-MS/MS on a Quantum triple-quadrupole mass spectrometer in positive-ion mode using selected reaction monitoring. Detection of eicosanoids was performed as described in Kingsley & Marnett, 2007. For fatty acid analysis the mobile phases used were 80 μM AgOAc with 0.1% (v/v) acetic acid in H2O (solvent A) and 120 μM AgOAc with 0.1% (v/v) acetic acid in MeOH (solvent B). The analytes were eluted using a gradient from 20% A to 99% B over 5 minutes. The transitions used were m/z 300→282 for PEA, m/z 328→310 for SEA, m/z 434→416 for OEA, m/z 456→438 for AEA, m/z 464→446 for AEA-d8, m/z 331→257 for 2-PG, m/z 359→285 for 2-SG, m/z 463→389 for 2-OG, m/z 485→411 for 2-AG, m/z 493→419 for 2-AG-d8, m/z 519→409 for AA, and m/z 527→417 for AA-d8. Peak areas for the analytes were normalized to the appropriate internal standard and then normalized to tissue mass for in vivo samples.

[6] = system: peripheral tissue eCB, NAE, MAG and PG levels; experiment: Peripheral tissue NAE, MAG and PG levels after i.p. injection; type: in vivo, mice; conditions: liver
Experimental: as §1
as §2, with “samples. […]” for “samples.”

[7] = Chiral HPLC of (R)-profen-treated DRG extracts (racemization); type: in vitro ADME, mouse
Excerpt: A Daicel chiralpak chiral column was used in conjunction with a normal-phase HPLC gradient to separate the profen enantiomers.

[8] = target: T3, COX-2 in lipopolysaccharide-activated RAW264.7 cells (Mus musculus, UniProt Q05769); experiment: 2-AG oxygenation by lipopolysaccharide-activated RAW264.7 cells; type: cell-based
T3 construct: endogenous in cells; host or cells: RAW 264.7 macrophages stimulated with LPS (and GM-CSF / interferon γ where described)
T3 sequence (Q05769 18-604): T1 sequence (Q05769 18-604)

COX-2 = target: T4, COX-2 (Mus musculus, UniProt Q05769); experiment: Inhibition of COX-2 oxygenation by acetaminophen and its metabolites; type: biochemical
T4 sequence (Q05769 18-604): T1 sequence (Q05769 18-604)

ICR mice [9] = experiment: Rectal temperature, catalepsy and hot plate antinociception; conditions: 10 mg/kg i.p.
FAAH = target: T5, FAAH (Homo sapiens, UniProt O00519); conditions: in vitro; Bishay et al., 2010; cited from earlier work
T5 sequence (O00519 1-579): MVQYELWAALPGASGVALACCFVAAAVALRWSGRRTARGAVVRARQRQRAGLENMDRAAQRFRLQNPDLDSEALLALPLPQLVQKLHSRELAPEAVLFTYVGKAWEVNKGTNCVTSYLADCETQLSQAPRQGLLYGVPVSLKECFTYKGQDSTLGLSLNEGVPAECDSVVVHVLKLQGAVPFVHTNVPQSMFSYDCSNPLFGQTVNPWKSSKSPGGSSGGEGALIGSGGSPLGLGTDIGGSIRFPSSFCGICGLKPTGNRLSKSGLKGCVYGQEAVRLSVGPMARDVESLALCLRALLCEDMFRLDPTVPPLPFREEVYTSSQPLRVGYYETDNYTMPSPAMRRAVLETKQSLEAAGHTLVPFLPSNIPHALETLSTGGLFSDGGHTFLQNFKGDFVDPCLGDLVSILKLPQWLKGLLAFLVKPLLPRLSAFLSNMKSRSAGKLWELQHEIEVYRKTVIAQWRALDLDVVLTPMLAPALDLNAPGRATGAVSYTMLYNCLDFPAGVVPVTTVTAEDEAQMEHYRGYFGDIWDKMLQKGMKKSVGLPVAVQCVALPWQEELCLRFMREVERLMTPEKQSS

[10] = In vivo mouse assay: plasma levels; design: species or system C57BL/6 mice
[11] = AA 5 μM, read-out: AA % Inhibition

`O=C(O)C1(c2ccc(-c3ccccc3)c(F)c2)CC1` [Compound 5a, 1-(2-fluoro-[1,1′-biphenyl]-4-yl)cyclopropanecarboxylic acid] gave an inhibition at 25 µM ([1]; RAW264.7, at 25 μM compound) of 55%, an IC50 ([1]; conversion of 2-AG to PGE2-G/PGD2-G) of 10.2 µM and an inhibition at 10 µM (purified murine COX-2; [11]) of 0%. It also gave an IC50 (purified murine COX-2; murine COX-2 40 nM, 3 min preincubation, 2-AG 5 μM, 37° C., 30 s, mean ± SD, read-out: 2-AG IC50) of 2.3 µM and an inhibition at 10 µM (purified murine COX-2; read-out: Maximum inhibition of 2-AG oxygenation, 2-AG 5 μM) of 87%.
For `O=C(Nc1cccnc1)N1CCC(Cc2cccc(Oc3ccc(C(F)(F)F)cn3)c2)CC1` [PF-3845, N-3-pyridinyl-4-[[3-[[5-(trifluoromethyl)-2-pyridinyl]oxy]phenyl]methyl]-1-piperidinecarboxamide, reference compound], the Light-zone time (ICR mice [2]) was “significantly increased”, the “Number of light-zone entries” value (ICR mice [2]) was “significantly increased” and the “Overall locomotor activity in the light-dark box” value (ICR mice [2]) was “without significantly affecting”. For the same compound, the “Center distance travelled and center time in the open-field arena” value (ICR mice [3]) was “increased”, the Open arm latency (ICR mice [4]) was “significantly reduced; also recorded: decreased” and the “Other EPM parameters (open arm time, total distance traveled)” value (ICR mice [4]) was “did not affect; also recorded: did not increase”. The “Brain levels of NAEs other than AEA” value [5] was “robustly increased”, the “Brain AEA levels” value ([5]; vs vehicle) was “robustly increased” and the “Liver NAE levels” value [6] was “robust increases”.
With `CC(C)Cc1ccc([C@@H](C)C(=O)O)cc1` [Compound 7c, (R)-ibuprofen] the “Conversion to the (S)-enantiomer” value ([7]; DRG extracts, chiral HPLC) was “did not occur”.
For `CCCCC/C=C\C/C=C\C/C=C\C/C=C\CCCC(=O)Nc1ccc(O)cc1` [AM-404, N-(4-hydroxyphenyl)arachidonoylamide], the IC50 [8] was 0.046 µM, the “Selectivity for inhibition of 2-AG and AEA oxygenation compared to AA oxygenation” value (COX-2) was 700 fold and the “Dissociation from COX-2” value (COX-2; in the absence of substrate) was “slow”. For the same compound, the “Dissociation from COX-2” value (COX-2; in the presence of AA) was “rapid” and the IC50 (COX-2; read-out: IC50 for inhibition of 2-AG oxygenation) was 0.097 µM.
With `Cc1c(C(=O)c2cccc3ccccc23)c2cccc3c2n1[C@H](CN1CCOCC1)CO3` [Win-55212-2] the “Antinociception in the hot plate test” value (ICR mice [9]) was “induced”, the Catalepsy (ICR mice [9]) was “induced” and the “Hypothermia (rectal temperature)” value (ICR mice [9]) was “induced”.
For `C[C@@H](C(=O)O)c1ccc(-c2ccccc2)c(F)c1` [Compound 7a, (R)-flurbiprofen], the IC50 (FAAH) is given as > 1000 µM, the concentration at 72 h ([10]; male, C57BL/6, mouse, plasma, intraperitoneal, 10 mg/kg i.p. at 0, 8, 24, 32, 48 and 56 hr, sixteen hr after the last injection) is given as 20 µM and the “Conversion to the (S)-enantiomer” value [7] is given as “did not occur”.
In the case of `O=C(O)Cc1ccc(-c2ccccc2)c(F)c1` [Compound 3a, 2-(2-fluoro-[1,1′-biphenyl]-4-yl)acetic acid], the inhibition at 5 µM ([1]; RAW264.7, at 5 μM compound) is reported as 60%, the Average plasma concentration ([10]; 10 mg/kg i.p. at 0, 8, 24, 32, 48 and 56 hr, sixteen hr after the last injection) is reported as “not detected” and the half-life ([10]; male, C57BL/6, mouse, plasma, intraperitoneal, 10 mg/kg, read-out: Half-life (t1/2) in mouse plasma) is reported as 2 to 3 h. It also gave a concentration at 72 h ([10]; single 10 mg/kg i.p. injection, 1 hr) of 68 µM, a concentration at 72 h ([10]; single 10 mg/kg i.p. injection, 2 hr) of 50 µM and a concentration at 72 h ([10]; single 10 mg/kg i.p. injection, 4 hr) of 6 µM. The inhibition at 10 µM (purified murine COX-2; [11]) was 7%.
